In article PMC2409895, “Antitumour efficacy of VEGFR2 tyrosine kinase inhibitor correlates with expression of VEGF and its receptor VEGFR2 in tumour models” (British Journal of Cancer, 2004):

What was measured:
human VEGFR kinase 3 = target: T1, human VEGFR kinase 3 (Homo sapiens, UniProt P35916); experiment: VEGFR3 kinase assay (HTRF); type: biochemical
T1 construct: GST-fusion protein encoding the catalytic carboxyl-terminus of human VEGFR kinase 1, 2, or 3; made in house; host or cells: baculovirus expression system
Protocol: (§1) Vascular endothelial growth factor receptor kinase assays were carried out in a homogenous time-resolved fluorescence (HTRF) format in 384-well microtitre plates using a purified, baculovirus-expressed GST-fusion protein encoding the catalytic carboxyl-terminus of human VEGFR kinase 1, 2, or 3. Reactions were initiated by the addition of 10 μl of activated VEGFR kinase (1 nM, 0.1 M HEPES pH 7.5, 0.1 mg ml^−1 BSA, and 0.30 mM DTT) to 10 μl of substrate (360 nM biotin-aminohexyl-EEEEYFELVAKKKK-NH2 peptide, 75 μM ATP, 10 mM MgCl2) and 1 μl of small molecule inhibitor at various concentrations. Plates were incubated at room temperature for 60 min, and the reaction was stopped by the addition of 20 μl 100 mM EDTA. Homogenous time-resolved fluorescence reagents (20 μl 15 nM streptavidin-linked allophycocyanin, 1 nM europium-labelled anti-phosphotyrosine antibody in 0.1 M HEPES, pH 7.5, 0.1 mg ml^−1 BSA) were added and plates were incubated for a minimum of 10 min. The fluorescence at 665 nm was measured with a Victor plate reader (Wallac, Shelton, CT, USA) using a time delay of 50 μs. […] Data were fitted with a curve described by: y=((Vmax × x)/(K+x)+Y2), where Vmax is the upper asymptote, Y2 is the Y intercept, and K is the IC50.

A375P xenograft = experiment: A375P tumour xenograft growth inhibition; type: in vivo, nude mice; conditions: for % Inhibition of tumour growth: vs vehicle
Protocol: (§2) Tumours were initiated by injection of tumour cell suspension subcutaneously in 8–12-week-old nude mice, except PC3 tumours that were grown in SCID mice (Charles River Laboratories, Wilmington, MA, USA). When tumours reached a volume of 100–200 mm^3, mice were randomised into groups of eight prior to treatment with VEGFR kinase inhibitors. Animals were treated with kinase inhibitors (10, 30, or 100 mg kg^−1) or vehicle (0.5% hydroxypropyl methyl cellulose, 0.1% Tween 80 in sterile water), administered once or twice daily by oral gavage for 2–3 weeks (till the mean tumour volume reached 1000–1500 mm^3). Tumour volume was measured twice weekly by calipers, using the formula (length × width × width × 0.5), where length was the longest diameter across the tumour, and width was the corresponding perpendicular. Tumour growth inhibition was calculated by change in the slopes of tumour growth for control and treated tumours. The oral dose of GW654652 producing 50% inhibition of tumour growth (ED50, mg kg^−1) was estimated by a programme that performed a weighted nonlinear regression analysis of data using the equation: y=Vmax(1−(x/(K+x))), where K is equal to ED50. All animal studies were carried out with the appropriate institutional ethical committee approval and they met the standards of both the US federal regulations and those required by the UKCCCR guidelines ([Workman et al, 1998]).

CDK2 = target: T2, CDK2 (Homo sapiens, UniProt P24941); experiment: CDK2 kinase assay (scintillation proximity); type: biochemical
T2 construct: Each kinase assay was conducted using purified recombinant catalytic domain of the enzyme
Protocol: (§3) Inhibition of several other kinases by small molecules was also determined. Each kinase assay was conducted using purified recombinant catalytic domain of the enzyme. The concentration of ATP and kinase-specific biotinylated peptide in each assay was below the apparent Km of the respective substrate. Inhibition of c-Fms, SRC, and Tie-2 was evaluated by an HTRF format and the inhibition of CDK2, CDK4, EGFR, ErbB2, and Eph-B4 was detected by scintillation proximity assay.

Pharmacokinetics in mice = type: in vivo, mouse; conditions: for free Cmax: mice, based on 99% protein binding and total plasma concentration
SW620 xenograft = experiment: SW620 tumour xenograft growth inhibition; type: in vivo, nude mice; conditions: for % Inhibition of tumour growth: vs vehicle
Protocol: as §2

ErbB2 = target: T3, ErbB2 (Homo sapiens, UniProt P04626); experiment: ErbB2 kinase assay (scintillation proximity); type: biochemical
T3 construct: Each kinase assay was conducted using purified recombinant catalytic domain of the enzyme
Protocol: as §3

[1] = tested on: HUVEC grown in presence of VEGF; experiment: VEGF-induced HUVEC proliferation (BrdU incorporation); type: cell-based; conditions: Homo sapiens, VEGF 10 ng ml^−1, 72 h
Protocol: (§4) Effect of kinase inhibitors on cell proliferation was measured using BrdU incorporation method using commercially available kits (Roche Diagnostics, Indianapolis, IN, USA). Briefly, HUVEC were seeded in a medium containing 5% FBS in type 1 Collagen-coated 96-well plates and incubated overnight at 37°C, 5% CO2. The medium was aspirated from the cells, and various concentrations of kinase inhibitors in serum-free medium were added to each well. After 30 min, VEGF (10 ng ml^−1) or bFGF (0.3 ng ml^−1) was added to the wells. Cells were incubated for an additional 72 h and BrdU (10 μM) was added during the last 18–24 h of incubation. Data were fitted with a curve described by the equation, y=Vmax × (1−(x/(K+x))), where K is equal to the IC50.

SRC = target: T4, SRC (Homo sapiens, UniProt P12931); experiment: SRC kinase assay (HTRF); type: biochemical
T4 construct: Each kinase assay was conducted using purified recombinant catalytic domain of the enzyme
Protocol: as §3

EGFR = target: T5, EGFR (Homo sapiens, UniProt P00533); experiment: EGFR kinase assay (scintillation proximity); type: biochemical
T5 construct: Each kinase assay was conducted using purified recombinant catalytic domain of the enzyme
Protocol: as §3

Protein binding = type: in vitro ADME; conditions: mouse, plasma; used to calculate free Cmax in mice
human VEGFR kinase 1 = target: T6, human VEGFR kinase 1 (Homo sapiens, UniProt P17948); experiment: VEGFR1 kinase assay (HTRF); type: biochemical
T6 construct: GST-fusion protein encoding the catalytic carboxyl-terminus of human VEGFR kinase 1, 2, or 3; made in house; host or cells: baculovirus expression system
T6 sequence (P17948 827-1158 limits assumed): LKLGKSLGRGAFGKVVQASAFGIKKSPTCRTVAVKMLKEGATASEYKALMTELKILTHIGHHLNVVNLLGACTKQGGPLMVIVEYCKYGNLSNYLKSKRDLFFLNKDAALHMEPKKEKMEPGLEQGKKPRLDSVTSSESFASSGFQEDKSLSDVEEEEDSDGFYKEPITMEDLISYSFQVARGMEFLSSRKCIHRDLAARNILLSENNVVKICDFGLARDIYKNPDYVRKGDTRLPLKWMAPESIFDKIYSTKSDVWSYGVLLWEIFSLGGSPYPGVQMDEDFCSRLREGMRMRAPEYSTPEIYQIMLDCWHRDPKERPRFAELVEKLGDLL
Protocol: as §1

human VEGFR2 kinase = target: T7, human VEGFR2 kinase (Homo sapiens, UniProt P35968); experiment: VEGFR2 kinase assay (HTRF); type: biochemical; conditions: Table 1
T7 construct: GST-fusion protein encoding the catalytic carboxyl-terminus of human VEGFR kinase 1, 2, or 3; made in house; host or cells: baculovirus expression system
Protocol: as §1

HN5 xenograft = experiment: HN5 tumour xenograft growth inhibition; type: in vivo, nude mice; conditions: for % Inhibition of tumour growth: vs vehicle
Protocol: as §2

c-Fms = target: T8, c-Fms (Homo sapiens, UniProt P07333); experiment: c-Fms kinase assay (HTRF); type: biochemical
T8 construct: Each kinase assay was conducted using purified recombinant catalytic domain of the enzyme
T8 sequence (P07333 582-910 limits assumed): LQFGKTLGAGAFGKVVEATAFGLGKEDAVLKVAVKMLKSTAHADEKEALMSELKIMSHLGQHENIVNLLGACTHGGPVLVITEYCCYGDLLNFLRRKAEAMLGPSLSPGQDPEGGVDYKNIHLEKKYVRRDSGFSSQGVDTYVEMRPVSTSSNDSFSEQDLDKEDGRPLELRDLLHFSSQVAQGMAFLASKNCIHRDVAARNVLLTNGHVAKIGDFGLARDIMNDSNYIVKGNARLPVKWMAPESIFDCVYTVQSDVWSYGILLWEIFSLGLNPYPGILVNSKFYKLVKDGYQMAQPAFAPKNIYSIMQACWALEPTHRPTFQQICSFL
Protocol: as §3

Tie2 = target: T9, Tie2 (Homo sapiens, UniProt Q02763); experiment: Tie-2 kinase assay (HTRF); type: biochemical
T9 construct: Each kinase assay was conducted using purified recombinant catalytic domain of the enzyme
Protocol: as §3

Pharmacokinetics in dog = type: in vivo
PC3 xenograft = experiment: PC3 tumour xenograft growth inhibition; type: in vivo, SCID mice; conditions: for % Inhibition of tumour growth: vs vehicle
Protocol: as §2

[2] = tested on: HUVEC grown in presence of bFGF; experiment: bFGF-induced HUVEC proliferation (BrdU incorporation); type: cell-based; conditions: Homo sapiens, bFGF 0.3 ng ml^−1, 72 h
Protocol: as §4

HT29 xenograft = experiment: HT29 tumour xenograft growth inhibition; type: in vivo, nude mice; conditions: for % Inhibition of tumour growth: vs vehicle
Protocol: as §2

HCT116 xenograft = experiment: HCT116 tumour xenograft growth inhibition; type: in vivo, nude mice; conditions: for % Inhibition of tumour growth: vs vehicle
Protocol: as §2

CDK4 = target: T10, CDK4 (Homo sapiens, UniProt P11802); experiment: CDK4 kinase assay (scintillation proximity); type: biochemical
T10 construct: Each kinase assay was conducted using purified recombinant catalytic domain of the enzyme
Protocol: as §3

Eph-B4 = target: T11, Eph-B4 (Homo sapiens, UniProt P54760); experiment: Eph-B4 kinase assay (scintillation proximity); type: biochemical
T11 construct: Each kinase assay was conducted using purified recombinant catalytic domain of the enzyme
T11 sequence (P54760 615-899 limits assumed): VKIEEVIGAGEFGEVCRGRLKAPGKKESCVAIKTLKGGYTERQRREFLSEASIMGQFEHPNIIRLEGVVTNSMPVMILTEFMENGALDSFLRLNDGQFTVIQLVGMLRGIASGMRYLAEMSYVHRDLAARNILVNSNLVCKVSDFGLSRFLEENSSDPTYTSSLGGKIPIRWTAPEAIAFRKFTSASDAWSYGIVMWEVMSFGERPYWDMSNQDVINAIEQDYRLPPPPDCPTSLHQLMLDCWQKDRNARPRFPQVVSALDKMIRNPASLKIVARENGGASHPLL
Protocol: as §3

[3] = ratio of IC50 of the kinase to IC50 vs VEGFR-2

T9 sequence (Q02763 824-1096 limits assumed, species assumed): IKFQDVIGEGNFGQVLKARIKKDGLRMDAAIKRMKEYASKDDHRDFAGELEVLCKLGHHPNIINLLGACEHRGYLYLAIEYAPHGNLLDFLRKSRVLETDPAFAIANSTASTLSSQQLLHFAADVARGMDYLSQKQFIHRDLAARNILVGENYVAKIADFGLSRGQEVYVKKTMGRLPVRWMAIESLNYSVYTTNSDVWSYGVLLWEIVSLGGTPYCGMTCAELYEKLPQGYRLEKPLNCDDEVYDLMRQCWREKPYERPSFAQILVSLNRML
T4 sequence (P12931 270-523 limits assumed, species assumed): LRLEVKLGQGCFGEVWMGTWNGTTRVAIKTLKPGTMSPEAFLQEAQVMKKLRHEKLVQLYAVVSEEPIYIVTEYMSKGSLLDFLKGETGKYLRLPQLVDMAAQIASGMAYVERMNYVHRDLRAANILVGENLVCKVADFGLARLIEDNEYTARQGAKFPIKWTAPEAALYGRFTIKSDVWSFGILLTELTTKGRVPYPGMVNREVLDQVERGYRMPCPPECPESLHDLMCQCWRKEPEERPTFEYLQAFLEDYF
T10 sequence (P11802 6-295 limits assumed, species assumed): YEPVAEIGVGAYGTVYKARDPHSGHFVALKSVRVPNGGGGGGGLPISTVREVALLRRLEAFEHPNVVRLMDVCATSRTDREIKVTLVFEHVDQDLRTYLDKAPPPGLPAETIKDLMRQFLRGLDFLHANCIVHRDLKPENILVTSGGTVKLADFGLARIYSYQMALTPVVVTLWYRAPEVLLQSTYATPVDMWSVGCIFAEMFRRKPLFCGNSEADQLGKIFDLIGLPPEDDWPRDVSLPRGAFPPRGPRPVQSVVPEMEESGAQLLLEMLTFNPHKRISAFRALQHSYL
T10 sequence (P24385 whole entry partner, species assumed, the tested form may be a part): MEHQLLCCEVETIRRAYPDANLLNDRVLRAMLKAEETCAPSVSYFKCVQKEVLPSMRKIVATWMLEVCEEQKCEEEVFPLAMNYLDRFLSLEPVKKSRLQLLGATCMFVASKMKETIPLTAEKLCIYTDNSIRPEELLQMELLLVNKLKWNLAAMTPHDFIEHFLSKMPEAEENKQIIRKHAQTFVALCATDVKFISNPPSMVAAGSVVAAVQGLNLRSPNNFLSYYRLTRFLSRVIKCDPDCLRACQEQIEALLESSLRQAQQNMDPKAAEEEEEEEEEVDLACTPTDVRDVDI
T5 sequence (P00533 712-979 limits assumed, species assumed): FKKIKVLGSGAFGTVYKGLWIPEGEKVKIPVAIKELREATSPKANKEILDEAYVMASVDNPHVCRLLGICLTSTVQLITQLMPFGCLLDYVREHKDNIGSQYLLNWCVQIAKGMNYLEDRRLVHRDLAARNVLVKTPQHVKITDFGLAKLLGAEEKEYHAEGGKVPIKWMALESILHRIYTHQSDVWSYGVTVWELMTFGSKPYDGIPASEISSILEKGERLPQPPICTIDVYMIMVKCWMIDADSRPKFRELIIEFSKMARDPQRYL
T1 sequence (P35916 845-1173 limits assumed): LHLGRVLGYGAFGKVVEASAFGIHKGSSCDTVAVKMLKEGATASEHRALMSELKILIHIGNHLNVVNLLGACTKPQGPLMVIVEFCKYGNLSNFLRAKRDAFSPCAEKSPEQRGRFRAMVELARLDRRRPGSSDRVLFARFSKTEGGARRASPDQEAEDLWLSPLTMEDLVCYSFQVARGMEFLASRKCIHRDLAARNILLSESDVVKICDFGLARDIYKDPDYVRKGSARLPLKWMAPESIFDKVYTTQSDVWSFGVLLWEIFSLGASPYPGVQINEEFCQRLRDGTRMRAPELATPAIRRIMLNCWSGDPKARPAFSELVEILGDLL
T3 sequence (P04626 720-987 limits assumed, species assumed): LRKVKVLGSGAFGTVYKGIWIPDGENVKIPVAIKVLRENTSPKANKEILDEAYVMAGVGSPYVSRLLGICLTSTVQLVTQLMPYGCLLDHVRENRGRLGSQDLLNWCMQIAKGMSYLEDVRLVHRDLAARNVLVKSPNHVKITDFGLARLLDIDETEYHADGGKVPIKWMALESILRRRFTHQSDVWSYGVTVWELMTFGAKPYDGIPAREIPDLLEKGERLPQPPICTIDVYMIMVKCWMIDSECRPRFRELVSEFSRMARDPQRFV
T7 sequence (P35968 834-1162 limits assumed): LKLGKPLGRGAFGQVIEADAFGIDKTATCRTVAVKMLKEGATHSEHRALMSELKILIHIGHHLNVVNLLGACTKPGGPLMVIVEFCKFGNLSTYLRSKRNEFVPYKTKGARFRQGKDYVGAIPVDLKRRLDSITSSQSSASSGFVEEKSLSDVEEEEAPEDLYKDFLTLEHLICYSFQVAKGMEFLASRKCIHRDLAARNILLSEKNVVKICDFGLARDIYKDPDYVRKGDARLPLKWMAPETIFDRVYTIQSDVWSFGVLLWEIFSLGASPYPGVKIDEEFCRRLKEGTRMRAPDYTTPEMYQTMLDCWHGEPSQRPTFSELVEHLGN

- IC50 (human VEGFR kinase 3; mean±s.e.): 2.5 ± 0.5 nM
- Fold selectivity vs VEGFR-2, VEGFR-3 (human VEGFR kinase 3; [3]): 1.1
- IC50 (CDK2): > 20000 nM
- Fold selectivity vs VEGFR-2, CDK2 (CDK2; [3]): >8800
- free Cmax (Pharmacokinetics in mice; oral 10 mg kg^−1): 60 nM
- free Cmax (Pharmacokinetics in mice; oral 30 mg kg^−1): 230 nM
- free Cmax (Pharmacokinetics in mice; oral 100 mg kg^−1): 1380 nM
- pharmacokinetic profile (Pharmacokinetics in mice; mouse): good pharmacokinetic profile
- IC50 (ErbB2; mean±s.e.): 11500 ± 2740 nM
- Fold selectivity vs VEGFR-2, ErbB2 (ErbB2; [3]): 5125
- IC50 (SRC; mean±s.e.): 350 ± 240 nM
- Fold selectivity vs VEGFR-2, SRC (SRC; [3]): 156
- IC50 (EGFR; mean±s.e.): 1360 ± 420 nM
- Fold selectivity vs VEGFR-2, EGFR (EGFR; [3]): 605
- fraction unbound (Protein binding): 0.01
- IC50 (human VEGFR kinase 1; mean±s.e.): 12 ± 2.6 nM
- Fold selectivity vs VEGFR-2, VEGFR-1 (human VEGFR kinase 1; [3]): 5.3
- IC50 (human VEGFR2 kinase): 2.3 nM
- IC50 (c-Fms; mean±s.e.): 530 ± 330 nM
- Fold selectivity vs VEGFR-2, c-Fms (c-Fms; [3]): 237
- IC50 (Tie2; mean±s.e.): 320 ± 40 nM
- Fold selectivity vs VEGFR-2, Tie2 (Tie2; [3]): 144
- pharmacokinetic profile (Pharmacokinetics in dog): good pharmacokinetic profile
- IC50 (CDK4): > 20000 nM
- Fold selectivity vs VEGFR-2, CDK4 (CDK4; [3]): >8800
- IC50 (Eph-B4; mean±s.e.): 460 ± 30 nM
- Fold selectivity vs VEGFR-2, Eph-B4 (Eph-B4; [3]): 204
SMILES: CCS(=O)(=O)c1ccc(OC)c(Nc2nccc(N(C)c3ccc4c(C)n[nH]c4c3)n2)c1 [GW654652, N^2-[5-(ethylsulphonyl)-2-methoxyphenyl]-N^4-methyl-N^4-(3-methyl-1H-indazol-6-yl)pyrimidine-2,4-diamine]
- % Inhibition of tumour growth (A375P xenograft; 30 mg kg^−1 oral once daily): 14%
- % Inhibition of tumour growth (A375P xenograft; 100 mg kg^−1 oral once daily): 49%
- ED50 (A375P xenograft; oral dose producing 50% inhibition of tumour growth): 114 ± 54 mg/kg/day
- % Inhibition of tumour growth (SW620 xenograft; SW620, 10 mg kg^−1 oral once daily): 12%
- % Inhibition of tumour growth (SW620 xenograft; SW620, 30 mg kg^−1 oral once daily): 44%
- % Inhibition of tumour growth (SW620 xenograft; SW620, 100 mg kg^−1 oral once daily): 74%
- ED50 (SW620 xenograft; SW620, oral dose producing 50% inhibition of tumour growth): 46 ± 11 mg/kg/day
- IC50 [1]: 110 nM
- % Inhibition of tumour growth (HN5 xenograft; HN5, 10 mg kg^−1 oral once daily): 24%
- % Inhibition of tumour growth (HN5 xenograft; HN5, 30 mg kg^−1 oral once daily): 46%
- % Inhibition of tumour growth (HN5 xenograft; HN5, 100 mg kg^−1 oral once daily): 83%
- ED50 (HN5 xenograft; HN5, oral dose producing 50% inhibition of tumour growth): 28 ± 10 mg/kg/day
- % Inhibition of tumour growth (PC3 xenograft; PC3, 30 mg kg^−1 oral once daily): 21%
- % Inhibition of tumour growth (PC3 xenograft; PC3, 100 mg kg^−1 oral once daily): 48%
- ED50 (PC3 xenograft; PC3, oral dose producing 50% inhibition of tumour growth): 108 ± 50 mg/kg/day
- IC50 [2]: 1980 nM
- % Inhibition of tumour growth (HT29 xenograft; HT29, 10 mg kg^−1 oral once daily): 5%
- % Inhibition of tumour growth (HT29 xenograft; HT29, 30 mg kg^−1 oral once daily): 69%
- % Inhibition of tumour growth (HT29 xenograft; HT29, 100 mg kg^−1 oral once daily): 98%
- ED50 (HT29 xenograft; HT29, oral dose producing 50% inhibition of tumour growth): 20 ± 8 mg/kg/day
- % Inhibition of tumour growth (HCT116 xenograft; HCT116, 10 mg kg^−1 oral once daily): 18%
- % Inhibition of tumour growth (HCT116 xenograft; HCT116, 30 mg kg^−1 oral once daily): 59%
- % Inhibition of tumour growth (HCT116 xenograft; HCT116, 100 mg kg^−1 oral once daily): 71%
- ED50 (HCT116 xenograft; HCT116, oral dose producing 50% inhibition of tumour growth): 21 ± 8 mg/kg/day
